Structures are written as SMILES. In brackets after ≈: the same amount, converted by molar mass.

Data on eleven compounds can be found in EPA's ToxValDB 9.5.

The conditions of data set [1]: chronic/long-term; development.
The test system of a further data set is Anas platyrhynchos. As to conditions: oral.
Another data set relates to Rattus norvegicus. The conditions noted are these: for LD50: acute; for NOEL: chronic, duration: 2 years, oral.
The next data set deals with Bovidae. As to conditions: oral.
In another data set the test system is Canidae. The conditions noted are these: oral, Dog Other.
A further data set deals with Coturnix coturnix. As to conditions: chronic; duration: 105 days; oral; diet; mortality.
In another data set the test system is Gallus gallus. The conditions noted are these: oral, diet.
For a further data set, the system named is Oncorhynchus mykiss. As to conditions: for LOAEL / NOEC: chronic/long-term; for LOAEL: oral, feed; for LC50: acute, duration: 96 hours, mortality.
A further data set has as its system Ovis sp. As to conditions: oral.
A further data set has as its system Bibionidae. The conditions noted are these: chronic/long-term, duration: 28 days.
For a further data set, the system named is Cyprinodon variegatus. As to conditions: acute; duration: 96 hours.
The subject of a further data set is Daphnia magna. The conditions noted are these: chronic/long-term, duration: 21 days.
The next data set relates to Lepomis macrochirus. As to conditions: acute; duration: 96 hours.
In another data set the test system is Capra sp. As to conditions: subchronic.
In a further data set the test system is Sus scrofa. The conditions noted are these: Not specified.
In another data set the test system is Colinus virginianus. As to conditions: reproduction developmental.
For a further data set, the system named is Tagia sp. As to conditions: chronic/long-term; duration: 56 days.
The subject of the next data set is Typhlodromus pyri. Description: LR50; higher = less toxic. The conditions noted are these: not reported; mortality.
The subject of another data set is Danio rerio. As to conditions: acute; duration: 96 hours; mortality.
For the next data set, the system named is Mus musculus. As to conditions: organ weight.
Another data set relates to Anatidae. The conditions noted are these: subchronic; duration: 41 days; oral; feed; M/F; no effects.
The subject of a further data set is Pontoscolex corethrurus. The conditions noted are these: acute; duration: 7 days; body weight.
A further data set concerns Meleagris sp. As to conditions: not reported; no effects.
Setting [2] is: chronic, duration: 112 days, diet, no effects.

For the compound `CC(=O)O.CCCCCCCCCCCCN=C(N)N` [Dodecylguanidine acetate], in [1], the NOAEL was determined as 45 mg/kg-day. In addition, the LD50 came to 857 mg/kg-day in the data set with Anas platyrhynchos (acute, unspecified) and 851 mg/kg-day with Rattus norvegicus. The NOEL in the data set with Bird (reproductive) worked out at 17 mg/kg-day. The LC50 in the data set with Bird (short-term, oral, feed) came to 208 mg/kg-day.

Regarding `ClC1=C(Cl)[C@]2(Cl)[C@@H]3[C@H]4C[C@H]([C@@H]5O[C@H]45)[C@@H]3[C@@]1(Cl)C2(Cl)Cl` [Endrin], the NOAEL with Anas platyrhynchos (subchronic, duration: 12 weeks, feed, M/F, mortality) was 0.5 mg/kg; in the data set on Canidae (chronic, duration: 18 months, diet, organ weight) it was 1 mg/kg-day; in the data set on Gallus gallus (subchronic, duration: 50 days, mortality), 1 mg/kg-day. The LEL in the data set with Bovidae (setting [2]) and with Ovis sp. (setting [2]) was 5 mg/kg-day each time. The LOAEL with Coturnix coturnix was found to be 0.5 mg/kg-day; in the data set on Oncorhynchus mykiss (duration: 163 days, clinical chemistry) it was 4.3 µg/kg-day.

Regarding `CCOP(=O)(NC(C)C)Oc1ccc(SC)c(C)c1` (stereo not drawn) [Fenamiphos], the NOEC in the data set with Bibionidae is 1.31 µg/L; with Daphnia magna, 0.12 µg/L; with Oncorhynchus mykiss (duration: 91 days), 3.8 µg/L. In addition, the no observed adverse effect level (NOAEL) in the data set on Canidae (acute, neurology) is 0.25 mg/kg-day; in the data set on Canidae (chronic, duration: 1 years, neurology) it was 0.083 mg/kg-day. Moreover, the LC50 came out at 0.017 µg/mL (≈ 0.056 µM) in the data set on Cyprinodon variegatus and 0.0093 µg/mL (≈ 0.0307 µM) in the data set on Lepomis macrochirus. The LD50 with Rattus norvegicus (mortality) stood at 6 mg/kg-day.

For `Cc1cc2c(C(C)C)c(O)c(O)c(C=O)c2c(O)c1-c1c(C)cc2c(C(C)C)c(O)c(O)c(C=O)c2c1O` [Gossypol], the LEL is 5 mg/kg-day with Canidae (repeat dose other, diet, mortality); not below 15 mg/kg-day in the data set with Capra sp. (duration: 90 days, oral, feed, growth); 4 mg/kg-day in the data set with Oryctolagus sp. (subchronic, duration: 8 weeks, oral, gavage, M, New Zealand, clinical chemistry). For the same compound, the NOAEL in the data set with Gallus gallus (short-term, duration: 20 days, histopathology: nonneoplastic) was determined as 20 mg/kg-day; in the data set with Sus scrofa (repeat dose other, organ weight), 3 mg/kg-day. Further, the LOAEL in the data set with Oncorhynchus mykiss (duration: 10 months, F, development) is 140 mg/kg; with Ovis sp. (subchronic, duration: 30 days, capsule, gross pathology) it was 3 mg/kg-day.

For `CC(C)C1(C)N=C(c2nc3ccccc3cc2C(=O)O)NC1=O` (stereo not drawn) [Imazaquin], the NOEC in the data set on Bibionidae (other) stood at 228 mg/kg; in the data set on Colinus virginianus, 16.6 mg/kg-day; in the data set with Daphnia magna (reproduction), 100000 µg/L; in the data set on Oncorhynchus mykiss (duration: 28 days, growth), 51200 µg/L; with Tagia sp. it was 0.0275 mg/kg. Besides, the no observed adverse effect level (NOAEL) in the data set with Canidae (chronic, duration: 1 years, clinical signs) came out at 25 mg/kg-day; with Oryctolagus sp. (reproduction developmental, mortality), 250 mg/kg-day. This compound had an LR50 in the data set on Typhlodromus pyri of more than 4 g/ha.

With `O=C1O[C@H]([C@@H](O)CO)C(O)=C1O` [L-Ascorbic acid], the LC50 in the data set with Danio rerio worked out at 32 µg/mL (≈ 182 µM); with Oncorhynchus mykiss, 1020 µg/mL (≈ 5790 µM).

In the case of `CC(O)(Cn1cncn1)c1ccc(Oc2ccc(Cl)cc2)cc1C(F)(F)F` (stereo not drawn) [Mefentrifluconazole], the NOAEL turned out to be 3.5 mg/kg-day with Mus musculus (chronic, duration: 18 months); 2 mg/kg-day in the data set with Mus musculus (subchronic, duration: 90 days); 15 mg/kg-day with Oryctolagus sp. (developmental, development).

Consider `CC[C@@H](C(=O)O)[C@@H]1O[C@@H]([C@@H](C)[C@H](O)[C@H](C)C(=O)[C@H](CC)[C@H]2O[C@]3(C=C[C@@H](O)[C@]4(CC[C@@](C)([C@H]5CC[C@](O)(CC)[C@H](C)O5)O4)O3)[C@H](C)C[C@@H]2C)[C@@H](C)C[C@@H]1C` [Narasin], for which the LEL was 280 mg/kg in the data set on Anatidae; 80 mg/kg in the data set with Equus caballus (short-term, duration: 1 months, oral, feed, M/F, food consumption); not below 35 mg/kg-day with Oryctolagus sp. (acute, Hungarian, clinical signs). In the data set on Bovidae (short-term, duration: 14 days, gavage, F, clinical signs), this compound registered an NOEL of 0.5 mg/kg-day. The compound also gave a no observed adverse effect level (NOAEL) in the data set on Canidae (chronic, duration: 1 years, capsule, M/F, histopathology: nonneoplastic) of 0.5 mg/kg-day. The same compound showed an LC50 in the data set with Oncorhynchus mykiss of 2.23 µg/mL (≈ 2.91 µM). The NOEC in the data set on Pontoscolex corethrurus was 4.3 mg/kg.

Turning to `O=[N+]([O-])c1ccc([As](=O)(O)O)cc1` [Nitarsone], the LEL was determined as 37.5 mg/kg-day in the data set with Canidae (subchronic, duration: 90 days, diet, no effects) and 750 mg/kg in the data set on Meleagris sp.. In the data set with Rattus norvegicus (diet, M/F, Long-Evans, histopathology: nonneoplastic), this compound yielded an NOEL of 2 mg/kg-day.

On to `O=N[O-]` [Nitrite ion], for which the NOAEL in the data set on Bovidae (repeat dose other, hematological) was found to be 3.3 mg/kg-day; in the data set with Sus scrofa (repeat dose other, oral, diet, hematological), 3.3 mg/kg-day. Moreover, the NOEL in the data set with Rattus norvegicus (drinking water, gross pathology) amounted to 6.7 mg/kg-day.

Consider `Cn1cnc2c1c(=O)[nH]c(=O)n2C` [Theobromine], for which the LEL turned out to be 300 mg/kg-day in the data set on Capra sp. (duration: 56 days, food consumption) and 0.5 mg/kg in the data set with Equus caballus (acute, no effects). Also, the NOAEL turned out to be 21 mg/kg-day in the data set with Oryctolagus sp. (developmental, development); 35 mg/kg-day in the data set on Ovis sp. (subchronic, duration: 3 months, diet, food consumption); 7 mg/kg-day with Sus scrofa (subchronic, oral, diet, growth).
